# Measured values: patent publication US12227509B2, “Dihydropyrazolopyrazinone derivative having MGAT2 inhibitory activity” (Shionogi & Co., Ltd., priority 2019, dated 2025)
# Tested on: not listed separately
# Test: Metabolism stability test (human liver microsomes)
# Type: in vitro ADME
# Details: compound concentration 0.5 μmol/L, 37° C., 30 minutes, NADPH
# Procedure: Using commercially available pooled human hepatic microsomes, the compound of the present invention was reacted for a constant time, a remaining rate was calculated by comparing a reacted sample and an unreacted sample, thereby, a degree of metabolism of the compound of the present invention in liver was assessed.
# A reaction was performed (oxidative reaction) at 37° C. for 0 minute or 30 minutes in the presence of 1 mmol/L NADPH in 0.2 mL of a buffer (50 mmol/L Tris-HCl pH 7.4, 150 mmol/L potassium chloride, 10 mmol/L magnesium chloride) containing 0.5 mg protein/mL of human liver microsomes. After the reaction, 50 μL of the reaction solution was added to 100 μL of a methanol/acetonitrile=1/1 (v/v) solution, mixed and centrifuged at 3000 rpm for 15 minutes. The compound of the present invention in the supernatant was quantified by LC/MS/MS, and a remaining amount of the compound of the present invention after the reaction was calculated, letting a compound amount at 0 minute reaction time to be 100%.
row,SMILES,Remaining rate [%]
1,N#Cc1ccc(-c2nn3c(c2NC(=O)c2ccno2)C(=O)N[C@@]2(CCc4cc(OCC(F)(F)F)ccc42)C3)nc1 [Compound I-13],76
2,CS(=O)(=O)CC(=O)Nc1c(-c2ccc(F)cc2)nn2c1C(=O)NC1(CN(c3ccc(C(F)(F)F)cc3)C1)C2 [Compound I-61],95.6
3,CS(=O)(=O)CC(=O)Nc1c(-c2ccc(F)cc2)nn2c1C(=O)N[C@]1(CCc3cc(OCC(F)(F)F)ccc31)C2 [Compound I-79],77.2

# Molecular target: hERG (IKr) (Homo sapiens (Human), UniProt Q12809)
# Test: hERG test
# Type: cell-based
# Details: CHO cells expressing hERG channel, pH 7.4, 10 μmol/L of test compound, read-out: % inhibition of hERG tail peak current (IKr)
# Description: For the purpose of assessing risk of an electrocardiogram QT interval prolongation of the compound of the present invention, effects of the compound of the present invention on delayed rectifier K^+ current (IKr), which plays an important role in the ventricular repolarization process, was studied using CHO cells expressing human ether-a-go-go related gene (hERG) channel.
# After a cell was retained at a membrane potential of −80 mV by whole cell patch clamp method using an automated patch clamp system (QPatch; Sophion BIoscience A/S), IKr induced by application of a leak potential of −50 mV followed by depolarization pulse stimulation at +20 mV for 2 seconds and, further, repolarization pulse stimulation at −50 mV for 2 seconds, was recorded. […] From the recording IKr, an absolute value of the tail peak current was measured based on the current value at the resting membrane potential using analysis software (Falster Patch; Sophion Bioscience A/S). Further, the % inhibition of tail peak current for the compound of the present invention relative to the tail peak current after application of the vehicle is calculated to assess influence of the compound of the present invention on IKr.
# Sequence of hERG (IKr) (Q12809 whole entry): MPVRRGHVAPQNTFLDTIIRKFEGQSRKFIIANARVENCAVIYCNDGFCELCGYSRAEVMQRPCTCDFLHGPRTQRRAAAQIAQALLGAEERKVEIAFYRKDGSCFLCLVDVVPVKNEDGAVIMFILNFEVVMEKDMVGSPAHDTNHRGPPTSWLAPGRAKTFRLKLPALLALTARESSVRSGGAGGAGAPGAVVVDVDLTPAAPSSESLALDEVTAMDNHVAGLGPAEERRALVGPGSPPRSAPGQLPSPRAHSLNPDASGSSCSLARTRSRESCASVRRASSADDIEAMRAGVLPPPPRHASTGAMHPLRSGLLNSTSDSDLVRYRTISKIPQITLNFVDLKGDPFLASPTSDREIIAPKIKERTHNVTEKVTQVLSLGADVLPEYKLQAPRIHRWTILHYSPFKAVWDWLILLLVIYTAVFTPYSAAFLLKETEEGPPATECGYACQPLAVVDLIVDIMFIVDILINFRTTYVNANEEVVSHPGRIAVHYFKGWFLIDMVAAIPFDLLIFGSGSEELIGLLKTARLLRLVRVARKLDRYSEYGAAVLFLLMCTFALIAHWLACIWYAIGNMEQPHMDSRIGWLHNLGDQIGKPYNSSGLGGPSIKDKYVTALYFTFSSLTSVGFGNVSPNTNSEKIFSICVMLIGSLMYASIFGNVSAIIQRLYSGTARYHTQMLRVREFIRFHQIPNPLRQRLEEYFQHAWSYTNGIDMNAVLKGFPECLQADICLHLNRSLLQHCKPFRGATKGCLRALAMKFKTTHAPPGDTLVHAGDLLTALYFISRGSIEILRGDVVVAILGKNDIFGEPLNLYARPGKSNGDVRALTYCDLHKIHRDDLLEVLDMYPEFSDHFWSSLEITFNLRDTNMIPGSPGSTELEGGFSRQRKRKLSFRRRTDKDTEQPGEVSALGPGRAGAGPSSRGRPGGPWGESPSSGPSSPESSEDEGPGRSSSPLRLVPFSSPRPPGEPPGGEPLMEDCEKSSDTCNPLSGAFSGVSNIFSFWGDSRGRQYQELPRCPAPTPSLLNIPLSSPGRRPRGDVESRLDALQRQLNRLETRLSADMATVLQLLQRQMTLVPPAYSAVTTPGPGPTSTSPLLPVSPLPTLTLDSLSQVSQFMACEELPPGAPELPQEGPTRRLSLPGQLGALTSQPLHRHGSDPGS
row,SMILES,"inhibition at 10 min, 10 μmol/L [%]"
1,CS(=O)(=O)CC(=O)Nc1c(-c2ccc(F)cc2)nn2c1C(=O)N[C@]1(CCc3cc(OCC(F)(F)F)ccc31)C2 [Compound I-79],25.5

# Molecular target: recombinant human MGAT2 (Homo sapiens (Human), UniProt Q3SYC2)
# Test: Measurement of human MGAT2 inhibitory activity
# Type: biochemical
# Details: concentration exhibiting 50% enzyme inhibition; recombinant human MGAT2, 2-Oleoylglycerol/Oleoyl-CoA
# Procedure: A full-length human MGAT2 gene to which a Flag-tag had been added at the N-terminal was inserted into pFastBac (from Invitrogen). A recombinant baculovirus was produced in accordance with the protocol for a Bac-to-Bac baculovirus expression system (produced by Invitrogen), and Sf-9 cells were infected therewith. The cells were collected and sonicated, and then the membrane fraction was collected through centrifugation. Western blotting analysis with an anti-Flag antibody was performed for the membrane fraction to confirm expression, and the membrane fraction was used as a recombinant human MGAT2 enzyme solution.
# Solutions of the compounds of the present invention in DMSO were each aliquoted into 0.2-μL portions in a 384-well polystyrene microplate produced by Corning Incorporated, and 5 μL of an enzyme solution prepared with an assay buffer (100 mmol/L phosphate buffer (pH 7.4) containing 2 mmol/L DTT) and 5 μL of a substrate solution (100 mmol/L phosphate buffer (pH 7.4), 30 μmol/L 2-Oleoylglycerol, 10 μmol/L Oleoyl-CoA) were added thereto, and the resultant was stirred and centrifuged, and incubated in a moist chamber at room temperature for 1 hour. After enzymatic reaction, 50 μL of a quenching solution (containing 0.2 μmol/L Diolein-d5, 0.4% formic acid, and 50% isopropanol) containing Internal Standard (IS) was added to terminate the reaction, and the resultant was sealed in a plate produced by Shimadzu GLC Ltd., and then stirred and centrifuged, and measurement was performed by using an electrospray ionization method with a RapidFire360 and Agilent 6550 Q-TOF mass spectrometer. Diolein as a reaction product (P) of 2-Oleoylglycerol as the substrate and an ammonium adduct ion of the IS were detected, and the peak intensity ratio, P/IS, was calculated from the peak heights to evaluate the inhibitory activity. Inhibitory activities with/without addition of enzyme were defined as Control (+)/Control (−), respectively, and the respective % inhibitions were defined as 0% inhibition and 100% inhibition. The inhibitory activity was calculated from formula below with TIBCO Spotfire (produced by TIBCO Software Inc.)
# Inhibitory activity (%)=[1−{Sample−Control (−)}/{Control (+)−Control (−)}]*100 where Sample indicates a peak intensity ratio: P/IS, when the compound of the present invention was added.
# Sequence of recombinant human MGAT2 (Q3SYC2 whole entry): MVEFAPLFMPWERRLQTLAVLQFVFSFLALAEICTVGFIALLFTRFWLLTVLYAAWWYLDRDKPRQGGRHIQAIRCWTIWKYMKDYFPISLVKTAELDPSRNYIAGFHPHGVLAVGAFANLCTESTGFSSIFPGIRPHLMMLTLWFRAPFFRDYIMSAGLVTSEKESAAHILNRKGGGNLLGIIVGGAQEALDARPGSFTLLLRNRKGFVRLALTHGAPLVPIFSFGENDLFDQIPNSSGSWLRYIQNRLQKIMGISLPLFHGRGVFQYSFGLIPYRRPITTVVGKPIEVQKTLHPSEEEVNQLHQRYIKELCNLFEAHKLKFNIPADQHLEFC
row,SMILES,IC50 [nM]
1,N#Cc1ccc(-c2nn3c(c2NC(=O)c2ccno2)C(=O)N[C@@]2(CCc4cc(OCC(F)(F)F)ccc42)C3)nc1 [Compound I-13],1.93
2,CS(=O)(=O)CC(=O)Nc1c(-c2ccc(F)cc2)nn2c1C(=O)NC1(CN(c3ccc(C(F)(F)F)cc3)C1)C2 [Compound I-61],1.41
3,CCCCCc1nn2c(c1NC(=O)CS(C)(=O)=O)C(=O)N[C@]1(CCc3cc(OCC)ccc31)C2 [Compound I-115],14.5
4,CCOc1ccc2c(c1)CC[C@]21Cn2nc(-c3ccc(F)cc3)c(NC(=O)CS(C)(=O)=O)c2C(=O)N1 [Compound I-116],6.72
5,CCOc1ccc2c(c1)CC[C@]21Cn2nc(-c3ccc(F)c(F)c3)c(NC(=O)CS(C)(=O)=O)c2C(=O)N1 [Compound I-117],4.83
6,CCS(=O)(=O)CC(=O)Nc1c(-c2ccc(F)cn2)nn2c1C(=O)N[C@@]1(CCOc3cc(F)cc(F)c31)C2 [Compound I-118],3.76
7,CS(=O)(=O)CC(=O)Nc1c(-c2ccc(F)cn2)nn2c1C(=O)N[C@@]1(CCOc3cc(F)cc(F)c31)C2 [Compound I-119],2.98
8,CS(=O)(=O)CC(=O)Nc1c(CCC2CC2)nn2c1C(=O)N[C@@]1(CCOc3cc(F)cc(F)c31)C2 [Compound I-120],2.57
9,CS(=O)(=O)CC(=O)Nc1c(-c2ccc(F)cn2)nn2c1C(=O)N[C@@]1(CCc3cc(F)cc(F)c31)C2 [Compound I-121],6.02
10,CCS(=O)(=O)CC(=O)Nc1c(-c2ccc(C)cn2)nn2c1C(=O)N[C@@]1(CCc3cc(F)cc(F)c31)C2 [Compound I-122],21.4
11,CS(=O)(=O)CC(=O)Nc1c(-c2ccc(F)cc2)nn2c1C(=O)N[C@@]1(CCOc3cc(F)cc(F)c31)C2 [Compound I-125],2.8
12,CCS(=O)(=O)CC(=O)Nc1c(-c2ccc(C)cn2)nn2c1C(=O)N[C@@]1(CCc3cc(OCC(F)(F)F)ccc31)C2 [Compound I-127],2.77
13,Cc1ccc(-c2nn3c(c2NC(=O)CS(=O)(=O)N(C)C)C(=O)N[C@@]2(CCc4cc(OCC(F)(F)F)ccc42)C3)nc1 [Compound I-128],91.9
14,CS(=O)(=O)CC(=O)Nc1c(-c2ccc(F)cc2)nn2c1C(=O)N[C@@]1(CCc3cc(F)cc(F)c31)C2 [Compound I-129],10
15,CS(=O)(=O)CC(=O)Nc1c(-c2ccc(C(F)F)cc2)nn2c1C(=O)N[C@@]1(CCc3cc(F)cc(F)c31)C2 [Compound I-131],9.33
16,CCOc1ccc2c(c1)OCC[C@]21Cn2nc(-c3ccc(F)cc3)c(NC(=O)CS(C)(=O)=O)c2C(=O)N1 [Compound I-132],3.1

# Continued, values first:
row,IC50 [nM],SMILES
1,4.49,CCOc1ccc2c(c1)OCC[C@@]21Cn2nc(-c3ccc(F)cc3)c(NC(=O)CS(C)(=O)=O)c2C(=O)N1 [Compound I-134]
2,3.22,CCOc1ccc2c(c1)OCC[C@@]21Cn2nc(-c3ccc(F)c(F)c3)c(NC(=O)CS(C)(=O)=O)c2C(=O)N1 [Compound I-135]
3,3.55,CS(=O)(=O)CC(=O)Nc1c(-c2ccc(Cl)c(F)c2)nn2c1C(=O)N[C@@]1(CCc3cc(F)cc(F)c31)C2 [Compound I-138]
4,11.1,CS(=O)(=O)CC(=O)Nc1c(CCC2CC2)nn2c1C(=O)N[C@@]1(CCc3cc(F)cc(F)c31)C2 [Compound I-140]
5,1.4,CS(=O)(=O)CC(=O)Nc1c(-c2ccc(Cl)c(F)c2)nn2c1C(=O)N[C@@]1(CCOc3cc(F)cc(F)c31)C2 [Compound I-144]
6,9.7,CS(=O)(=O)CC(=O)Nc1c(-c2ccc(F)cn2)nn2c1C(=O)N[C@]1(CCc3cc(F)cc(F)c31)C2 [Compound I-146]
7,10.6,CS(=O)(=O)CC(=O)Nc1c(-c2ccc(F)c(F)c2)nn2c1C(=O)N[C@]1(CCc3cc(F)cc(F)c31)C2 [Compound I-148]
8,23.4,CS(=O)(=O)CC(=O)Nc1c(CCC2CC2)nn2c1C(=O)N[C@]1(CCc3cc(F)cc(F)c31)C2 [Compound I-149]
9,11.3,CS(=O)(=O)CC(=O)Nc1c(-c2ccc(F)cn2)nn2c1C(=O)N[C@]1(CCOc3cc(F)cc(F)c31)C2 [Compound I-150]
10,8.24,CS(=O)(=O)CC(=O)Nc1c(-c2ccc(F)c(F)c2)nn2c1C(=O)N[C@]1(CCOc3cc(F)cc(F)c31)C2 [Compound I-152]

# Tested on: not listed separately
# Test: Solubility test (1% DMSO addition, pH 6.8 artificial intestinal juice)
# Type: physicochemical
# Details: kinetic from dmso stock, 16 hours at 25° C.
# Procedure: The solubility of the compound of the present invention was determined under 1% DMSO addition conditions. 10 mmol/L solution of the compound was prepared with DMSO, and 6 μL of the solution of the compound of the present invention was added to 594 μL of pH 6.8 artificial intestinal juice (118 mL of 0.2 mol/L NaOH test solution and water were added to 250 mL of 0.2 mol/L potassium dihydrogen phosphate test solution to reach 1000 mL). The mixture was left standing for 16 hours at 25° C., and the mixture was vacuum-filtered. The filtrate was two-fold diluted with methanol/water=1/1 (V/V), and the compound concentration in the filtrate was measured with HPLC or LC/MS/MS by the absolute calibration method. The dilution concentration and the dilution solvent were changed as necessary.
row,SMILES,solubility at 16 h [µM]
1,CS(=O)(=O)CC(=O)Nc1c(-c2ccc(F)cc2)nn2c1C(=O)N[C@]1(CCc3cc(OCC(F)(F)F)ccc31)C2 [Compound I-79],> 50
